Test results as given in the supplement of paper PMC10307832.

How the values were obtained:
Assay in all cases: relative viability (nuclei count vs DMSO), 5 days (fraction); higher = more cells survive
ALW-II-49-7 + Luminespib = compound: Cc1ccc(C(=O)Nc2cccc(C(F)(F)F)c2)cc1Nc1cncc(C(N)=O)c1 [ALW-II-49-7] + CCNC(=O)c1noc(-c2cc(C(C)C)c(O)cc2O)c1-c1ccc(CN2CCOCC2)cc1 [Luminespib] (partner 0.01 µM)
Outline: (§1)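 Values are medians from duplicate plates. Each reflects relative viability, defined as the nuclei count of treated wells over that of vehicle wells. Lung cancer cell lines in 1536-well plates were pin-tool dosed one day after seeding with one drug alone or with a fixed anchor-drug dose plus five library-drug doses (not always all listed) in √10 steps, then fixed, stained and imaged at 4× after 5 days.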

ALW-II-49-7 + Phenformin = compound: Cc1ccc(C(=O)Nc2cccc(C(F)(F)F)c2)cc1Nc1cncc(C(N)=O)c1 [ALW-II-49-7] + N=C(N)NC(=N)NCCc1ccccc1 [Phenformin] (partner 250 µM)
Outline: as §1

Dasatinib + Foretinib = compound: Cc1nc(Nc2ncc(C(=O)Nc3c(C)cccc3Cl)s2)cc(N2CCN(CCO)CC2)n1 [Dasatinib] + COc1cc2c(Oc3ccc(NC(=O)C4(C(=O)Nc5ccc(F)cc5)CC4)cc3F)ccnc2cc1OCCCN1CCOCC1 [Foretinib] (partner 0.25 µM)
Outline: as §1

Dasatinib + Pictilisib = compound: Cc1nc(Nc2ncc(C(=O)Nc3c(C)cccc3Cl)s2)cc(N2CCN(CCO)CC2)n1 [Dasatinib] + CS(=O)(=O)N1CCN(Cc2cc3nc(-c4cccc5[nH]ncc45)nc(N4CCOCC4)c3s2)CC1 [Pictilisib] (partner 1 µM)
Outline: as §1

Cell Line	relative viability (ALW-II-49-7 + Luminespib; first compound 0.08 µM)	relative viability (ALW-II-49-7 + Luminespib; first compound 0.253 µM)	relative viability (ALW-II-49-7 + Luminespib; first compound 0.8 µM)	relative viability (ALW-II-49-7 + Luminespib; first compound 2.53 µM)	relative viability (ALW-II-49-7 + Luminespib; first compound 8 µM)	relative viability (ALW-II-49-7 + Phenformin; first compound 0.08 µM)	relative viability (ALW-II-49-7 + Phenformin; first compound 0.253 µM)	relative viability (ALW-II-49-7 + Phenformin; first compound 0.8 µM)	relative viability (ALW-II-49-7 + Phenformin; first compound 2.53 µM)	relative viability (ALW-II-49-7 + Phenformin; first compound 8 µM)	relative viability (Dasatinib + Foretinib; first compound 0.005 µM)	relative viability (Dasatinib + Foretinib; first compound 0.01581 µM)	relative viability (Dasatinib + Foretinib; first compound 0.05 µM)	relative viability (Dasatinib + Foretinib; first compound 0.1581 µM)	relative viability (Dasatinib + Foretinib; first compound 0.5 µM)	relative viability (Dasatinib + Pictilisib; first compound 0.005 µM)	relative viability (Dasatinib + Pictilisib; first compound 0.01581 µM)	relative viability (Dasatinib + Pictilisib; first compound 0.05 µM)	relative viability (Dasatinib + Pictilisib; first compound 0.1581 µM)	relative viability (Dasatinib + Pictilisib; first compound 0.5 µM)
NCI-H1650	0.199	0.169	0.209	0.19	0.206	0.447	0.465	0.427	0.492	0.476	0.877	0.64	0.635	0.247	0.262	0.481	0.277	0.259	0.215	0.199
NCI-H1651	0.637	0.802	0.801	0.644	0.876	0.345	0.312	0.376	0.317	0.321	0.81	0.666	0.673	0.646	0.445	0.716	0.499	0.46	0.423	0.419
NCI-H1666	0.951	0.999	1.04	1.12	1	0.565	0.568	0.58	0.703	0.653	1.12	0.989	1.07	0.862	0.425	0.546	0.442	0.522	0.295	0.316
NCI-H1734	0.209	0.177	0.169	0.181	0.186	0.345	0.359	0.385	0.381	0.335	0.743	0.613	0.586	0.427	0.367	0.367	0.362	0.355	0.307	0.229
NCI-H1755	0.341	0.497	0.421	0.283	0.268	0.584	0.627	0.612	0.55	0.405	0.778	0.706	0.617	0.463	0.185	0.317	0.21	0.191	0.182	0.139
NCI-H1793	0.146	0.197	0.195	0.177	0.175	0.41	0.35	0.258	0.302	0.297	0.553	0.528	0.374	0.337	0.359	0.316	0.395	0.29	0.311	0.31
NCI-H1915	0.745	0.612	0.679	0.493	0.441	0.333	0.32	0.364	0.353	0.342	1.05	0.804	0.957	0.431	0.298	0.936	0.84	0.763	0.463	0.231
NCI-H1944	0.884	0.805	0.796	0.815	0.738	0.193	0.231	0.18	0.176	0.138	0.849	0.684	0.701	0.291	0.21	0.308	0.274	0.274	0.258	0.268
NCI-H1975	0.431	0.165	0.235	0.292	0.198	0.393	0.461	0.39	0.415	0.412	0.918	0.817	0.722	0.439	0.225	0.315	0.225	0.207	0.0981	0.201
NCI-H1993	0.701	0.705	0.95	0.793	1.14	0.535	0.546	0.542	0.544	0.502	0.641	0.59	0.561	0.472	0.496	0.923	0.682	0.723	0.776	0.866
NCI-H2009	1.04	1.02	1.04	0.845	0.728	0.463	0.49	0.444	0.334	0.283	1.15	0.984	0.925	0.882	0.216	0.705	0.503	0.41	0.193	0.124
NCI-H2023	0.524	0.754	0.919	0.682	0.476	0.384	0.467	0.403	0.395	0.319	0.642	0.749	0.434	0.377	0.297	0.21	0.142	0.202	0.173	0.151
NCI-H2085	0.405	0.465	0.445	0.4	0.44	0.754	0.639	0.677	0.889	0.693	0.855	0.783	0.338	0.198	0.173	0.399	0.31	0.242	0.218	0.167
NCI-H2087	0.142	0.166	0.197	0.171	0.171	0.526	0.459	0.488	0.467	0.445	1.2	1.16	1.31	0.756	0.464	0.952	1.01	1.17	0.737	0.494
NCI-H2126	0.938	0.932	0.855	0.803	0.868	0.507	0.549	0.505	0.515	0.485	1.18	0.799	1.2	0.852	0.425	0.512	0.446	0.443	0.387	0.288
NCI-H2170	0.73	0.372	0.418	0.826	0.784	0.411	0.435	0.432	0.387	0.346	0.958	0.927	0.708	0.678	0.491	0.286	0.234	0.257	0.265	0.203
